This note sets out measurements from patent publication US20040040554A1 (priority 2000, published 2004).

Like-named read-outs stand apart in the source and are kept apart here.

For assay [1], the system named is influenza A virus (A/PR/8/34 strain).
Assay [2] has the same test system. It counts as cell-based. To be noted: read-out: Inhibiting Activity Cell Fusion (IC50).
For assay [3] the test system is unchanged. It counts as cell-based. To be noted: read-out: Inhibiting Activity Infection (IC50).

By IC50 is commonly meant the concentration needed to halve the response being measured. In the case of “Pentenyl(5-acetamido-3,5-dideoxy-D-glycero-α-D-galacto-2-nonulopyranosylic Acid)-O-β-D-galactopyranosyl-(1→4)-O-β-D-glucopyranoside [vii]”, the “Inhibiting Activity Erythrocyte Aggregation” value in assay [1] was found to be 133.3 µM. For the same substance, the IC50 was 745 µM in assay [2] and 124 µM in assay [3].
